Data set [1] in a line: Plasma pharmacokinetics of sorafenib and sorafenib N-oxide after single oral sorafenib in diabetic and healthy rats (HPLC-UV, non-compartmental analysis). In kind it is in vivo, Wistar-strain rats. Conditions: single oral sorafenib 100 mg/kg. The method, then: The experimental protocol for this study was reviewed and approved by the Local Ethics Committee. All procedures were performed in accordance with European Union regulations concerning the handling and use of laboratory animals. The study was conducted following the principles of the 3Rs (Replacement, Reduction and Refinement). Adult male Wistar-strain rats (weight 400–445 g) were used in the study. The animals were maintained under standard breeding conditions with a 12 h light–12 h dark cycle at constant room temperature (23 ± 2 °C), relative humidity (55 ± 10%) and given ad libitum access to feed and water. After acclimatisation the rats were randomly assigned into two groups: the diabetic group (DG) (n = 8) and the healthy group (HG) (n = 8).
(§1) DG rats were fed a high-fat diet (Labofeed B, 60% fat; Morawski, Poland) for a period of 4 weeks to induce insulin resistance. After 2 weeks of dietary manipulation the animals were intraperitoneally injected with STZ (35 mg/kg body weight in 1000 μL of sterile citrate buffer, pH 4.2). Citrate buffer was injected as a vehicle in HG. The high-fat diet was continued for subsequent 2 weeks in the DG. The rats in the HG were fed with standard diet (Labofeed B, 8% fat) and water ad libitum. The rats with the blood glucose level ≥ 250 mg/dL were considered diabetic and qualified for this study. The percentage reduction of the glucose levels in the rats was calculated using the following formula: %Reductionglucose=(V0-Vt)·100/V0, where V0 glucose concentration at baseline and Vt glucose concentration at the time of maximum reduction.
(§2) After injecting streptozotocin 10% glucose solution was additionally administered for 24 h to prevent hypoglycaemia. […] The drug was dissolved in 1 mL 10% DMSO and administered orally by means of a gastric feeding tube. 0.1 mL blood samples were collected from rats by cutting a piece of their tails. The samples were collected at the following time points: 0, 0.5, 1, 1.5, 2, 3, 4, 5, 6, 7, 8, 10, 12, 24, 30, 48, 72, 96 h. Each time on blood collection glycaemia was measured.
The validation was performed according to the guidelines of the European Medicines Agency (EMA) concerning validation of bioanalytical methods. Chromatographic analysis was conducted on a Alliance® system with 2695 Separation Module and a Dual Lambda (λ) absorbance detector (Waters Corporation®, USA). Data acquisition was performed using Empower software v. 1154. Separation was carried out on Symmetry® C8 column (250 mm × 4.6 mm, 5.0 µm particle size, Waters Corporation®, USA). The column temperature was maintained at 25 °C. The mobile phase consisted of ammonium acetate 0.1 M pH = 3.4 (adjusted with glacial acetic acid) (solvent A) and acetonitrile (solvent B). The following gradient was used: the percentage A was decreased from 60 to 29%, while at the same time over 21 min percentage B increased linearly from 40 to 71%. The UV detection wavelength was set at 265 nm, and the injection volume was 20 µL. The volume of the analyzed rat plasma was 25 µL. The samples were determined using liquid–liquid extraction.
The maximum plasma concentration (Cmax) and the time to reach the maximum plasma concentration (tmax) were obtained directly from the concentration—time data. The elimination rate constant (kel) was estimated from the slope of the terminal linear segment of the log mean concentration-time plot using the automatic best-fitting option in WinNonlin 8.1. The elimination half-life (t1/2kel) was calculated from ln2/kel. The area under the concentration-time curve from zero to the time of the last concentration measured (AUC0−t) was calculated by a linear trapezoidal rule and the residual area under the curve (AUCres) was estimated by extrapolation from the last concentration measured (Clast) to infinity using Clast/kel ratio. The area under curve from zero to infinity (AUC0−∞) was computed as a sum of AUC0−t and AUCres.

The conditions of data set [2]: cited from earlier work.
Data set [3] can be described thus: Effect of a single sorafenib dose on blood glucose level (glycaemia). In kind it is in vivo, Wistar-strain rats. Conditions: control group (healthy rats), single oral sorafenib 100 mg/kg. The method, then:
as §1, §2

Data set [4] relates to streptozotocin-induced diabetic rats. The description is as above. Type of data set: in vivo, Wistar-strain rats. The settings on record: DG group (diabetic rats), single oral sorafenib 100 mg/kg. On the procedure:
as §1, §2

In a further data set the test system is patients. The settings on record: multiple administration of the TKI; cited from earlier work.
For data set [5] the following is noted: diabetic animals (streptozotocin-induced for sunitinib and lapatinib, alloxan-induced rabbits for erlotinib); cited from earlier work.
The mark [6] stands for this setting: increase in diabetic versus healthy rats.

In the case of `CNC(=O)c1cc(Oc2ccc(NC(=O)Nc3ccc(Cl)c(C(F)(F)F)c3)cc2)cc[n+]1[O-]` [Sorafenib N-oxide, sorafenib N-oxide], in data set [1] (setting [6]), the “AUC0−t higher in the DG when compared to the HG” value amounted to 112.55%, the “AUC0−∞ higher in the DG when compared to the HG” value turned out to be 91.87%, the “AUMC0-t increase in the DG” value is on record as 134.31% and the “AUMC0-∞ increase in the DG” value was 85.33%. The “Cmax higher in the DG when compared to the HG” value in data set [1] (setting [6]) was found to be 119.57%. In addition, the “share of circulating substances at steady state” value in data set [2] is listed as 9–16%.
Regarding `CNC(=O)c1cc(Oc2ccc(NC(=O)Nc3ccc(Cl)c(C(F)(F)F)c3)cc2)ccn1` [Sorafenib], in data set [3], the glucose levels entry was “did not decrease”. Further, the “time of maximum reduction of glycaemia after the sorafenib administration” value in data set [4] lay in the range of 1.5 to 11 h. In addition, the “maximum reduction of glycaemia” value in data set [4] ((V0-Vt)·100/V0) is listed as 11.2–50.8%. Further, the “Cl/F decreased in diabetic animals” value in data set [1] (decrease in diabetic versus healthy rats) was 40%. Moreover, in data set [1] (setting [6]), the “AUC0−t higher in the DG when compared to the HG” value is 66.4%, the “AUC0−∞ higher in the DG when compared to the HG” value amounted to 56.0% and the “Cmax higher in the DG when compared to the HG” value amounted to 88.7%. Further, the “effect on blood glucose after multiple administration” value in the data set on patients is “hypoglycaemic effect”.
As for `C#Cc1cccc(Nc2ncnc3cc(OCCOC)c(OCCOC)cc23)c1` [erlotinib], in data set [5], the “Cmax in diabetic animals” value is “significantly increased” and the “total exposure in diabetic animals” value is on record as “significantly increased”.
As for `CS(=O)(=O)CCNCc1ccc(-c2ccc3ncnc(Nc4ccc(OCc5cccc(F)c5)c(Cl)c4)c3c2)o1` [lapatinib], in data set [5], the “Cmax in diabetic animals” value was “significantly increased” and the “total exposure in diabetic animals” value is “significantly increased”.
In the case of `CCN(CC)CCNC(=O)c1c(C)[nH]c(/C=C2\C(=O)Nc3ccc(F)cc32)c1C` [sunitinib], in data set [5], the “Cmax in diabetic animals” value is recorded as “significantly increased” and the “total exposure in diabetic animals” value is reported as “significantly increased”.

The values are drawn from PMC8187206 (Pharmacological Reports, 2020).
